# Measured values published in PMC10590756, “Glutarate regulates T cell metabolism and anti-tumour immunity” (Nature Metabolism, 2023).
# pIC50: −log10 of the molar value.
# Assays:
# [1] = biological target: T1, human full-length KDM6A (Homo sapiens, UniProt O15550); experiment: Cell-free KDM6A activity assay (^14CO2 release); assay type: biochemical
# T1 construct: The human full-length HIF-P4H-1 and KDM6A enzymes were recombinantly produced using Sf21 insect cells; made in house; host or cells: Sf21 insect cells (baculovirus, pVL1393)
# T1 sequence (O15550 whole entry): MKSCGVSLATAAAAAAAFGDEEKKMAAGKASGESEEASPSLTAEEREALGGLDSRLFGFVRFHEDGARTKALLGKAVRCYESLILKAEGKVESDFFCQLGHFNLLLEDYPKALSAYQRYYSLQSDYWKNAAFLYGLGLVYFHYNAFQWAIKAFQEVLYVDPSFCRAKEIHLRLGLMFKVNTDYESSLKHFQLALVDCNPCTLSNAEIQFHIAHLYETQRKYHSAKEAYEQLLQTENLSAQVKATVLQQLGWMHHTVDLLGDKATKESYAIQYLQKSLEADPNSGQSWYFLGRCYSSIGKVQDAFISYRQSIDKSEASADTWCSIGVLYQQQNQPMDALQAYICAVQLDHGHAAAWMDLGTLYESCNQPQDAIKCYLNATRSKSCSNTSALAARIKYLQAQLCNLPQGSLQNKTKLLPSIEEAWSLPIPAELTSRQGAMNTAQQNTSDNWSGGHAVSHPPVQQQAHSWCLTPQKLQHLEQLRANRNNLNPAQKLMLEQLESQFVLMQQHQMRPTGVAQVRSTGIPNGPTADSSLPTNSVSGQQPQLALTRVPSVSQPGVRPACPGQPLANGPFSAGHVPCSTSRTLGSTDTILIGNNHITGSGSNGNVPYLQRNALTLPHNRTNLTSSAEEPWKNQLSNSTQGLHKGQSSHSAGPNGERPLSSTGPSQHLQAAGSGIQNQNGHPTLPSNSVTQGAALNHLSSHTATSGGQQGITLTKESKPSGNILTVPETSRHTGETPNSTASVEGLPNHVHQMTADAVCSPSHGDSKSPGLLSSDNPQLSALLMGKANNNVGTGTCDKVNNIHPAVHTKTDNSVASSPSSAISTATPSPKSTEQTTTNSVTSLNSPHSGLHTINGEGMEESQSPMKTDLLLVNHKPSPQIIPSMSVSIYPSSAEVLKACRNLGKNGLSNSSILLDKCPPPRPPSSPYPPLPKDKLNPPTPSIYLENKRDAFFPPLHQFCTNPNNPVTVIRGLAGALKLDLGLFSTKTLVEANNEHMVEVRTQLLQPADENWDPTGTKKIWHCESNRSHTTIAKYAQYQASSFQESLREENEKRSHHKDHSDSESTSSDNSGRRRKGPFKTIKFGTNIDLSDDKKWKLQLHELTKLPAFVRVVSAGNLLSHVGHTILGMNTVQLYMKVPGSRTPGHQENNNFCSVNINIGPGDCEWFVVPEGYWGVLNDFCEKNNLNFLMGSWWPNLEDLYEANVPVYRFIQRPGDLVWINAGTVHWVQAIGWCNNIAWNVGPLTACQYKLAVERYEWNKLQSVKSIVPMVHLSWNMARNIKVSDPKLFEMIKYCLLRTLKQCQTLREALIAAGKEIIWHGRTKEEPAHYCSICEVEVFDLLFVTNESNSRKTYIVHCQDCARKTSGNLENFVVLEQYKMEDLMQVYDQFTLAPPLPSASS
# Description: The human full-length HIF-P4H-1 and KDM6A enzymes were recombinantly produced using Sf21 insect cells and the enzymes were purified with anti-FLAG M2 affinity gel as described previously[68],[69]. Briefly, the C terminus FLAG-tagged human HIF-P4H1-2 and KDM6A were generated using PCR and subcloned into pAcG3X and pVL1393 baculovirus expression vectors, respectively. The recombinant baculoviruses were generated by transducing the bacmid DNA into Spodoptera frugiperda Sf9 cells using BaculoGold DNA (HIF-P4H1-2, BD Biosciences) and BacMagic-3 DNA kit (for KDM6A, Novagen). Recombinant proteins were produced by infecting Sf21 insect cells with the corresponding amplified baculoviruses for 72 h at 27 °C. Cells were homogenized in a buffer containing 10 mM Tris, 150 mM NaCl, 100 mM glycine, 0.1% (v/v) Triton X-100, pH 7.8, and a protease inhibitor cocktail tablet without EDTA. The cell lysates were centrifuged at 21,000g for 30 min; the soluble fractions containing the FLAG-tagged proteins were affinity-purified using the anti-FLAG M2 affinity gel (Sigma-Aldrich). […] Protein concentration was measured with NanoDrop and proteins were analysed by SDS–PAGE followed by Coomassie brilliant blue staining. […] The IC50 value of the glutarate analogue was calculated from the inhibition saturation curves.
# [2] = tested on: primary murine CD8^+ T cells; experiment: Screen of T cell differentiation: CD62L/CD44 populations by flow cytometry; assay type: cell-based, mouse
# Description: We first sought to investigate if compounds structurally related to 2HG could increase the TCM population of CD8^+ T cells. To carry out this analysis, we identified 19 structural analogues of 2HG; eight were commercially available and 11 were synthesized de novo for the purposes of this study (Table 1). We used esterified versions of most of the compounds used, so as to increase both potency and intracellular translocation. The octyl ester form of S-2HG was used as a positive control in these assays. We screened the compounds for effects on T cell differentiation at 400-µM levels (using the efficacy of S-2HG in CD8^+ T cells as a guide[11]) in culture media during the process of activation of isolated primary murine CD8^+ T cells.
# After 7 days of culture, we assessed the abundance of CD62L^hiCD44^hi (TCM-like) T cells by flow cytometry (Fig. 1a). We additionally determined the effect of each compound on cell growth and viability (Fig. 1b and Extended Data Fig. 1a).
# Mouse CD8^+ T cells were isolated from mouse spleens using positive selection. Incubation with microbeads conjugated to monoclonal anti-mouse CD8α (Ly-2; isotype: rat IgG2a) antibody (catalogue no. 130-049-401, Miltenyi Biotec) was followed by magnetic bead isolation on a MACS column. WT mouse CD8^+ T cells were activated with anti-mouse CD3/CD28 Dynabeads (catalogue no. 11453D, Thermo Fisher Scientific) at a 1:1 cell:bead ratio. Purified OT1 CD8^+ T cells were activated with 1 µg ml^−1 of the OVA-derived peptide SIINFEKL (ProImmune). All mouse CD8^+ T cells were cultured in complete RPMI 1640 supplemented with 10% FCS, 100 U ml^−1 penicillin, 100 µg ml^−1 streptomycin, 55 µM 2-ME (catalogue no. 21985023, Gibco) and 10 U ml^−1 IL-2.
# Single-cell suspensions were stained with LIVE/DEAD Fixable Near-IR Dead Cell Stain Kit (catalogue no. 10119, Thermo Fisher Scientific) followed by surface and intracellular staining with fluorochrome-labelled antibodies (Supplementary Tables 1 and 2). […]
# [3] = tested on: human CD8^+ T cells; experiment: Markers of T cell differentiation and exhaustion by flow cytometry; assay type: cell-based
# Method: Single-cell suspensions were stained with LIVE/DEAD Fixable Near-IR Dead Cell Stain Kit (catalogue no. 10119, Thermo Fisher Scientific) followed by surface and intracellular staining with fluorochrome-labelled antibodies (Supplementary Tables 1 and 2). Staining of cytoplasmic and nuclear antigens was performed using the Cytofix/Cytoperm Fixation/Permeabilization Kit (catalogue no. 554714, BD Biosciences) and the Transcription Factor Buffer Set (catalogue no. 562725, BD Biosciences), respectively. For the proliferation assays, cells were loaded with CellTrace Violet (catalogue no. C34557, Thermo Fisher Scientific) according to the manufacturer’s instructions. Samples were acquired on an Aurora (Cytek Biosciences).
# [4] = tested on: CD19^+ Raji cells; experiment: In vitro cytotoxicity and IFNγ secretion of CD19 CAR T cells; assay type: cell-based, human; conditions: T cells cultured 7 days with 500 µM DEG
# Method: Secreted IFNγ levels of cultured cells were determined using an ELISA. Assays were performed with uncoated ELISA kits (catalogue no. 88-7316, Thermo Fisher Scientific), according to the manufacturer’s instructions. Absorbance was determined using a microplate reader (Sunrise, Tecan) at a wavelength of 450 nm.
# Ten thousand B16F10-OVA or SKOV3 cells were seeded per well in 96-well plates and cocultured for a minimum of 14 h with varying ratios of mouse CD8^+ OT1 or human CD8^+RQR8^+ HER2 CAR T cells, respectively. T cells had been treated with or without DEG 7 days before the assay. Wells were washed twice with PBS to remove T cells and the number of remaining target cells was determined by culturing with 10 µg ml^−1 resazurin (catalogue no. R7017, Sigma-Aldrich) and measuring the fluorescence signal in a plate reader. Cytotoxicity was calculated relative to wells with no T cells added. Ten thousand Raji cells were cocultured for a minimum of 14 h with CD19 CAR T cells previously activated for 7 days and cultured with or without DEG. Cytotoxicity was assessed by flow cytometry using the ratio of live Raji cells to CountBright Absolute Counting Beads (catalogue no. C36950, Thermo Fisher Scientific). To determine specific cytotoxicity, data were normalized to the cytotoxicity of the vector-controlled transduced CD8 T cells of the respective donor.
# [5] = 10 days of DEG treatment, 500 µM
Structure (SMILES),pIC50 [1],"abundance of CD62L^hiCD44^hi (TCM-like) CD8^+ T cells ([2]; 400 µM test compound, 7 days of culture)",effector memory T (TEM) cell population (CD62L^loCD44^hi) ([2]; 7 days of culture with DEG),"CD62L^hiCD44^hi TCM population ([2]; increasing concentrations of DEG, 7 days)","expression of LAG3 [3, 5]","expression of TIM3 [3, 5]","expression of TOX [3, 5]","expression of granzyme B (GZMB) ([3]; DEG 500 µM, 7-10 days)",cytotoxicity of CD19^+ CAR T cells against CD19^+ Raji cells [4],interferon-γ (IFNγ) secretion of CD19^+ CAR T cells ([4]; coculture with Raji cells)
"O=C(O)CCCC(=O)O [glutarate, glutaric acid]",3.22,,,,,,,,,
"CCOC(=O)CCCC(=O)OCC [DEG, Diethyl glutarate]",,significantly increased,decreased,increased the CD62L^hiCD44^hi TCM population in a dose-dependent manner,downregulated,downregulated,downregulated,increases,increased cytotoxicity,secreted more
